Measured values published in patent US8569495B2, “Anthelmintic agents and their use” (Intervet International B.V., priority 2007, dated 2013).
Where two headings read alike, the source gives them in different places.

Test system: Ascaridia galli (L3) and Oesophagostomum dentatum (L3 and L4)
Assay: In vitro anthelmintic activity against larval stages of Ascaridia galli and Oesophagostomum dentatum (MEC)
Settings: A. galli L3, O. dentatum L3 and L4; for minimal effective concentration: Ascaridia galli, 20 larvae per well, microscopic examination
[1] = in vitro, read-out: minimum effective concentration (MEC) against two or more of the tested nematodes
[2] = in vitro, read-out: minimum effective concentration (MEC) against one or more of the tested nematodes

**Q.** For N#Cc1ccc(N[C@H]2CC[C@H](OCC(=O)N3CCN(c4ccc(OCc5ccccc5)cc4)CC3)CC2)cc1C(F)(F)F [Example 25, 4-(trans-4-{2-[4-(4-benzyloxy-phenyl)-piperazin-1-yl]-2-oxoethoxy}-cyclohexylamino)-2-trifluoromethyl-benzonitrile], which minimal effective concentration [1] is on record?
**A.** The minimal effective concentration was less than 1 µM.

**Q.** With CC(C)(C)c1ccc(C2CCN(C(=O)COC3CCC(Nc4ccc(C#N)c(C(F)(F)F)c4)CC3)CC2)cc1 (stereo not drawn) [Example 166] as the compound, how does the minimal effective concentration [1] read?
**A.** The minimal effective concentration was less than 1 µM.

**Q.** CC(C)(C)c1ccc(N2CCN(C(=S)COC3CCC(Nc4ccc(OC(F)(F)F)c(C(F)(F)F)c4)CC3)CC2)cc1 (stereo not drawn) [Example 202] was tested. Which minimal effective concentration [1] did it give?
**A.** The minimal effective concentration was less than 1 µM.

**Q.** With O=C(COC1CCC(Nc2ccc(Cl)c(C(F)(F)F)c2)CC1)N1CCN(c2ccc(OCc3ccccc3)cc2)CC1 (stereo not drawn) [Example 97] as the compound, how does the minimal effective concentration [1] read?
**A.** The minimal effective concentration was less than 1 µM.

**Q.** With O=C(COC1CCC(Nc2ccc([N+](=O)[O-])c(C(F)(F)F)c2)CC1)N1CCN(c2ccc(Cl)cc2)CC1 (stereo not drawn) [Example 63] as the compound, how does the minimal effective concentration [1] read?
**A.** The minimal effective concentration was less than 1 µM.

**Q.** With CCC(OC1CCC(Nc2ccc([N+](=O)[O-])c(C(F)(F)F)c2)CC1)C(=O)N1CCN(c2ccc(C(F)(F)F)cc2)CC1 (stereo not drawn) [Example 226] as the compound, how does the minimal effective concentration (read-out: minimum effective concentration (MEC) against two or more of the tested nematodes, in vitro) read?
**A.** The minimal effective concentration was less than 1 µM.

**Q.** How did the “activity against the tested nematodes” value (in vitro) turn out when O=C(CO[C@H]1CC[C@H](Nc2ccc([N+](=O)[O-])cc2C(F)(F)F)CC1)N1CCN(c2ccccc2)CC1 [Example 240] was run?
**A.** The value was “no detectable activity”.

**Q.** CC(C)(C)c1ccc(N2CCN(C(=S)COC3CCC(Nc4ccc(OC(F)(F)F)c(C(F)(F)F)c4)CC3)CC2)cc1 (stereo not drawn) [Example 206] was tested. Which minimal effective concentration [2] did it give?
**A.** The minimal effective concentration was less than 1 µM.

**Q.** COc1cc(N[C@H]2CC[C@H](OCC(=O)N3CCN(c4ccc(C(F)(F)F)cc4)CC3)CC2)ccc1[N+](=O)[O-] [Example 234] was tested. Which minimal effective concentration [2] did it give?
**A.** Its minimal effective concentration is less than 1 µM.

**Q.** For O=C(COC1CCC(Nc2ccc([N+](=O)[O-])c(C(F)(F)F)c2)CC1)N1CCC(c2ccc(Cl)cc2)CC1 (stereo not drawn) [Example 73], which minimal effective concentration [2] is on record?
**A.** The minimal effective concentration was less than 1 µM.

**Q.** For CC(C)(C)c1ccc(N2CCN(C(=O)CO[C@H]3CC[C@H](Nc4ccc(C#N)c(C(F)(F)F)c4)CC3)CC2)cc1 [Example 27, 4-(trans-4-{2-[4-(4-tert-butyl-phenyl)-piperazin-1-yl]-2-oxo-ethoxy}-cyclohexylamino)-2-trifluoromethyl-benzonitrile], which minimal effective concentration [1] is on record?
**A.** The minimal effective concentration was less than 1 µM.

**Q.** Which minimal effective concentration [1] does the source give for O=C(CC[C@H]1CC[C@H](Nc2ccc([N+](=O)[O-])c(C(F)(F)F)c2)CC1)N1CCN(c2ccc(C(F)(F)F)cc2)CC1 [Example 41, 3-(trans-4-(4-nitro-3-trifluoromethyl-phenylamino)-cyclohexyl)-1-(4-(4-trifluoromethyl-phenyl)-piperazin-1-yl)-propan-1-one] here?
**A.** Its minimal effective concentration is less than 1 µM.

**Q.** How did the minimal effective concentration [2] turn out when CN(CC1CCN(c2ccc(C(C)(C)C)cc2)CC1)C(=O)C1CCC(Nc2ccc([N+](=O)[O-])c(C(F)(F)F)c2)CC1 (stereo not drawn) [Example 132] was run?
**A.** The minimal effective concentration was less than 1 µM.

**Q.** And the minimal effective concentration [1]?
**A.** Its minimal effective concentration is less than 1 µM.

**Q.** With O=[N+]([O-])c1ccc(NC2CCC(OCC(=S)N3CCN(c4ccc(Cl)c(C(F)(F)F)c4)CC3)CC2)cc1C(F)(F)F (stereo not drawn) [Example 221] as the compound, how does the minimal effective concentration [2] read?
**A.** The minimal effective concentration was less than 1 µM.

**Q.** With CC(C)(C)c1ccc(N2CCN(C(=O)COC3C=C[C@@H](Nc4ccc([N+](=O)[O-])c(C(F)(F)F)c4)C3)CC2)cc1 (stereo partly drawn) [Example 259] as the compound, how does the minimal effective concentration [1] read?
**A.** The minimal effective concentration was less than 1 µM.

**Q.** What does the source list for O=C(NCC1CCN(c2ccc(C(F)(F)F)cc2)CC1)C1CCC(Nc2ccc([N+](=O)[O-])c(C(F)(F)F)c2)CC1 (stereo not drawn) [Example 120]?
**A.** minimal effective concentration [2]: < 1 µM; minimal effective concentration [1]: < 1 µM

**Q.** For CC(C)(C)c1ccc(N2CCN(C(=O)CO[C@H]3CC[C@H](Nc4ccc([N+](=O)[O-])c(C#N)c4)CC3)CC2)cc1 [Example 248], which minimal effective concentration [1] is on record?
**A.** The minimal effective concentration was less than 1 µM.

**Q.** For CSc1ccc(NC2CCN(C(=O)COC3CCC(Nc4ccc([N+](=O)[O-])c(C(F)(F)F)c4)CC3)CC2)cc1C(F)(F)F (stereo not drawn) [Example 188], which minimal effective concentration [1] is on record?
**A.** The minimal effective concentration was less than 1 µM.

**Q.** For O=C(COC1CCC(Nc2ccc([N+](=O)[O-])c(C(F)(F)F)c2)CC1)NCCCNc1ccc(C(F)(F)F)cc1 (stereo not drawn) [Example 152], which minimal effective concentration (read-out: minimum effective concentration (MEC) against one or more of the tested nematodes, in vitro) is on record?
**A.** Its minimal effective concentration is less than 1 µM.

**Q.** With CN(CC1CCC(Nc2ccc([N+](=O)[O-])c(C(F)(F)F)c2)CC1)C(=O)C1CCN(c2ccc(C(F)(F)F)cc2)CC1 (stereo not drawn) [Example 111] as the compound, how does the minimal effective concentration [2] read?
**A.** Its minimal effective concentration is less than 1 µM.

**Q.** How did the minimal effective concentration [2] turn out when N#Cc1cc([N+](=O)[O-])ccc1N[C@H]1CC[C@H](OCC(=O)N2CCN(c3ccc(Cl)cc3)CC2)CC1 [Example 245] was run?
**A.** Its minimal effective concentration is less than 7 µM.

**Q.** Which minimal effective concentration [1] does the source give for O=C(COC1CCC(Nc2ccc([N+](=O)[O-])c(C(F)(F)F)c2)CC1)N1CCN(c2ccc(C(F)(F)F)cc2)C(=O)C1 (stereo not drawn) [Example 158] here?
**A.** The minimal effective concentration was less than 1 µM.

**Q.** How did the minimal effective concentration [2] turn out when CCOc1ccc(N2CCC(CN(C)C(=O)C3CCC(Nc4ccc([N+](=O)[O-])c(C(F)(F)F)c4)CC3)CC2)cc1 (stereo not drawn) [Example 133] was run?
**A.** The minimal effective concentration was less than 1 µM.

**Q.** And the minimal effective concentration [1]?
**A.** Its minimal effective concentration is less than 1 µM.

**Q.** How did the minimal effective concentration [2] turn out when O=C(NCC1CCC(Nc2ccc([N+](=O)[O-])c(C(F)(F)F)c2)CC1)N1CCN(c2ccc(C(F)(F)F)cc2)CC1 (stereo not drawn) [Example 145] was run?
**A.** Its minimal effective concentration is less than 1 µM.

**Q.** And the minimal effective concentration [1]?
**A.** The minimal effective concentration was less than 1 µM.

**Q.** For CN(CC1CCN(c2ccc(Cl)cc2)CC1)C(=O)C1CCC(Nc2ccc([N+](=O)[O-])c(C(F)(F)F)c2)CC1 (stereo not drawn) [Example 136], which minimal effective concentration [1] is on record?
**A.** Its minimal effective concentration is less than 1 µM.

**Q.** How did the minimal effective concentration [2] turn out when CC(C)(C)c1ccc(N2CCN(C(=O)NCC3CCC(Nc4ccc([N+](=O)[O-])c(C(F)(F)F)c4)CC3)CC2)cc1 (stereo not drawn) [Example 143] was run?
**A.** The minimal effective concentration was less than 1 µM.

**Q.** Which minimal effective concentration [2] does the source give for O=C(NCC1CCC(Nc2ccc([N+](=O)[O-])c(C(F)(F)F)c2)CC1)C1CCN(c2ccc(F)cc2)CC1 (stereo not drawn) [Example 113] here?
**A.** The minimal effective concentration was less than 7 µM.

**Q.** How did the minimal effective concentration [1] turn out when CC(C)(C)c1ccc(N2CCC(C(=O)NC[C@H]3CC[C@H](Nc4ccc([N+](=O)[O-])c(C(F)(F)F)c4)CC3)CC2)cc1 [Example 54, 1-(4-tert-butyl-phenyl)-N-[trans-4-(4-nitro-3-trifluoromethyl-phenylamino)-cyclohexylmethyl]-piperidine-4-carboxamide] was run?
**A.** The minimal effective concentration was less than 1 µM.

**Q.** For COc1cc(N[C@H]2CC[C@H](OCC(=O)N3CCN(c4ccc(C(C)(C)C)cc4)CC3)CC2)ccc1[N+](=O)[O-] [Example 249], which minimal effective concentration [1] is on record?
**A.** The minimal effective concentration was less than 1 µM.

**Q.** How did the minimal effective concentration [1] turn out when N#Cc1ccc(N2CCN(C(=O)COC3CCC(Nc4ccc([N+](=O)[O-])c(C(F)(F)F)c4)CC3)CC2)cc1C(F)(F)F (stereo not drawn) [Example 64] was run?
**A.** The minimal effective concentration was less than 1 µM.

**Q.** For O=C(COC1CCC(Nc2ccc([N+](=O)[O-])c(C(F)(F)F)c2)CC1)N1CCCN(c2ccc(Cl)cc2)CC1 (stereo not drawn) [Example 150], which minimal effective concentration [2] is on record?
**A.** The minimal effective concentration was less than 1 µM.

**Q.** What about the minimal effective concentration [1] of the same compound?
**A.** Its minimal effective concentration is less than 1 µM.

**Q.** With CN(CC1CCC(Nc2ccc([N+](=O)[O-])c(C(F)(F)F)c2)CC1)C(=O)N1CCN(c2ccc(C(C)(C)C)cc2)CC1 (stereo not drawn) [Example 141] as the compound, how does the minimal effective concentration [2] read?
**A.** The minimal effective concentration was less than 1 µM.

**Q.** With O=C(COC1CCC(Nc2ccc([N+](=O)[O-])c(C(F)(F)F)c2)CC1)N1CCC(Nc2ccc([N+](=O)[O-])c(C(F)(F)F)c2)CC1 (stereo not drawn) [Example 189] as the compound, how does the minimal effective concentration [1] read?
**A.** The minimal effective concentration was less than 1 µM.

**Q.** O=C(COC1CCC(Nc2ccc([N+](=O)[O-])c(C(F)(F)F)c2)CC1)N1CCN(c2ccc(F)cc2F)CC1 (stereo not drawn) [Example 71] was tested. Which minimal effective concentration [1] did it give?
**A.** The minimal effective concentration was less than 1 µM.

**Q.** How did the minimal effective concentration [2] turn out when N#Cc1ccc(NC2CCC(OCC(=O)N3CCN(c4ccc(Cl)cc4)CC3)CC2)cc1C(F)(F)F (stereo not drawn) [Example 88] was run?
**A.** The minimal effective concentration was less than 1 µM.

**Q.** Which minimal effective concentration [1] does the source give for CC(C)(C)c1ccc(N2CCN(C(=S)COC3CCC(Nc4ccc(Cl)c(C(F)(F)F)c4)CC3)CC2)cc1 (stereo not drawn) [Example 215] here?
**A.** Its minimal effective concentration is less than 1 µM.

**Q.** With O=C(COC1CCC(Nc2ccc([N+](=O)[O-])c(C(F)(F)F)c2)CC1)N1CC2CN(c3ccc(Cl)cc3)CC2C1 (stereo not drawn) [Example 262] as the compound, how does the minimal effective concentration [1] read?
**A.** Its minimal effective concentration is less than 1 µM.
